According to patent US9284321B2, “Piperazino[1,2-a]indol-1-ones and [1,4]diazepino[1,2-a]indol-1-one” (Hoffmann-La Roche Inc., priority 2012, dated 2016):

Columns and labels:
[1] = test system: human embryonic stem cell derived neural stem cells (NSCs); test: Neural Stem Cell Proliferation Assay (neurogenesis assay, ATP levels by CellTiterGlo); format: cell-based; settings: 96 h, compound concentration at which 150% activity of control (100%) is reached, NSC proliferation by ATP level after 4 days incubation, dose response 8 μM to 8 nM
Method: Neurogenic properties of small molecules are determined based on the proliferation of human embryonic stem cell derived neural stem cells (NSCs) which were derived via a dual smad inhibition as previously described (Chambers, S. M., et al., Highly efficient neural conversion of human ES and iPS cells by dual inhibition of SMAD signaling, Nature biotechnology, 2009. 27(3): p. 275-80.)
Compounds respond is measured by the increase in cells based on ATP levels
(Promega:CellTiterGlo®) after an incubation period of 4 days.
NSCs are thawed and expanded over 3 passages. On the 14th day, NSCs are seeded in Polyornithin/Laminin coated 384 well plates at a cell density of 21′000 cells/cm^2 in a media volume of 38 μl.
4 hours after cell seeding, compound solutions are added at a volume of 2 μl. Stock solutions of the compounds (water, 5% DMSO) are diluted to obtain a dose response (11 points, dilution factor is 2), ranging from 8 μM to 8 nM. Controls are run to consistently determine the neurogenic properties of the cells:
Negative (neutral) control is cell culture Media (final DMSO concentration: 0.25%).
• 1. cell culture Media+100 ng/ml FGF2 (final DMSO concentration: 0.1%) • 2. cell culture Media+20 ng/ml EGF (final DMSO concentration: 0.1%) • 3. cell culture Media+100 ng/ml Wnt3a (final DMSO concentration: 0.1%)
After 4 days incubation at 37° C., 5% CO2, the amount of ATP per well is quantified. The ATP concentration is proportional to the cell number. ATP is quantified by using the Promega CellTiterGlo® kit. The CellTiterGlo® reagents contain a cell lysis buffer, a thermo stable luciferase (UltraGlo™ recombinant luciferase), magnesium and luciferin. Luciferin reacts with ATP producing oxyluciferin, AMP and light. The luminescence signal is proportional to the ATP content.
The value of negative (neutral) control is determined for each assay plate by taking the average of 16 negative control wells. The neurogenic compound response is calculated for each compound as (compound/Negative Control)*100.
The values of EC150 from the dose response curve are determined for each test compound. The EC150 is the compound concentration at which 150% activity of control (100%) is reached.

| Compound | melting point [°C] | EC (150% of control) [1] [µM] |
| --- | --- | --- |
| Cc1c2n(c3c(-c4ccc([N+](=O)[O-])cc4)cc(F)cc13)CCNC2=O [Example 126, 8-Fluoro-10-methyl-6-(4-nitro-phenyl)-3,4-dihydro-2H-pyrazino[1,2-a]indol-1-one] | 309 | 0.01 |
| Cc1cc(-c2ccc(F)cc2)c2c(c1)cc1n2CCNC1=O [Example 62, 6-(4-Fluoro-phenyl)-8-methyl-3,4-dihydro-2H-pyrazino[1,2-a]indol-1-one] | 257 | 0.32 |
| Cc1c2n(c3c(-c4ccc(Cl)c(F)c4)cc(C#N)cc13)CCNC2=O [Example 178, 6-(4-Chloro-3-fluoro-phenyl)-10-methyl-1-oxo-1,2,3,4-tetrahydro-pyrazino[1,2-a]indole-8-carbonitrile] | 260 | 0.048 |
| Cc1c2n(c3c(-c4ccc(N)nc4)cc(F)cc13)CCNC2=O [Example 160, 6-(6-Amino-pyridin-3-yl)-8-fluoro-10-methyl-3,4-dihydro-2H-pyrazino[1,2-a]indol-1-one] | 254 | 0.18 |
| O=C1NCCn2c1cc1cc(F)cc(-c3ccc(F)cc3)c12 [Example 18, 8-Fluoro-6-(4-fluoro-phenyl)-3,4-dihydro-2H-pyrazino[1,2-a]indol-1-one] | 304 | 0.026 |
| N#Cc1cc(-c2cc(F)cc(F)c2)c2c(c1)cc1n2CCNC1=O [Example 222, 6-(3,5-Difluorophenyl)-1-oxo-3,4-dihydro-2H-pyrazino[1,2-a]indole-8-carbonitrile] | 264 | 0.22 |
| O=C1NCCn2c1c(C(F)(F)F)c1cc(F)cc(-c3ccc(F)cc3)c12 [Example 181, 8-Fluoro-6-(4-fluoro-phenyl)-10-trifluoromethyl-3,4-dihydro-2H-pyrazino[1,2-a]indol-1-one] | 193 | 0.62 |
| COc1ccc(-c2cc(Cl)cc3c(C)c4n(c23)CCCNC4=O)cc1 [Example 71, 9-Chloro-7-(4-methoxy-phenyl)-11-methyl-2,3,4,5-tetrahydro-[1,4]diazepino[1,2-a]indol-1-one] | 240.5 | 0.021 |
| Cc1c2n(c3c(-c4ccncc4)cc(C#N)cc13)CCCNC2=O [Example 250, 11-Methyl-1-oxo-7-pyridin-4-yl-2,3,4,5-tetrahydro-[1,4]diazepino[1,2-a]indole-9-carbonitrile] | 285 | 0.15 |
| Cc1c2n(c3c(-c4ccc(F)cc4)cc(Cl)cc13)CCNC2=O [Example 66, 8-Chloro-6-(4-fluoro-phenyl)-10-methyl-3,4-dihydro-2H-pyrazino[1,2-a]indol-1-one] | 227.5 | 0.047 |
| Cc1ccc(-c2cc(F)cc3c(C)c4n(c23)CCNC4=O)cc1 [Example 81, 8-Fluoro-10-methyl-6-p-tolyl-3,4-dihydro-2H-pyrazino[1,2-a]indol-1-one] | 226 | 0.014 |
| Cc1c2n(c3c(-c4cccc(F)c4)cc(F)cc13)CCNC2=O [Example 87, 8-Fluoro-6-(3-fluoro-phenyl)-10-methyl-3,4-dihydro-2H-pyrazino[1,2-a]indol-1-one] | 222 | 0.1 |
| Cc1c2n(c3c(-c4ccc(Cl)cc4F)cc(C#N)cc13)CCCNC2=O [Example 207, 7-(4-Chloro-2-fluorophenyl)-11-methyl-1-oxo-2,3,4,5-tetrahydro-[1,4]diazepino[1,2-a]indole-9-carbonitrile] | 259 | 0.019 |
| Cc1c2n(c3c(-c4ccc(OC(F)(F)F)cc4)cc(C#N)cc13)CCCNC2=O [Example 201, 11-Methyl-1-oxo-7-[4-(trifluoromethoxy)-phenyl]-2,3,4,5-tetrahydro-[1,4]diazepino[1,2-a]indole-9-carbonitrile] | 218 | 0.048 |
| Cc1c2n(c3c(-c4ccc(Cl)c(Cl)c4)cc(F)cc13)CCNC2=O [Example 86, 6-(3,4-Dichloro-phenyl)-8-fluoro-10-methyl-3,4-dihydro-2H-pyrazino[1,2-a]indol-1-one] | 224 | 0.05 |
| Cc1c2n(c3c(-c4ccnc(F)c4)cc(F)cc13)CCNC2=O [Example 139, 8-Fluoro-6-(2-fluoro-pyridin-4-yl)-10-methyl-3,4-dihydro-2H-pyrazino[1,2-a]indol-1-one] | 240 | 0.027 |
| Cc1c2n(c3c(-c4ccc(C(F)(F)F)cc4)cc(Cl)cc13)CCNC2=O [Example 90, 8-Chloro-10-methyl-6-(4-trifluoromethyl-phenyl)-3,4-dihydro-2H-pyrazino[1,2-a]indol-1-one] | 260.5 | 0.017 |
| Cc1c2n(c3c(-c4ccc(F)cc4F)cc(C#N)cc13)CCCNC2=O [Example 205, 7-(2,4-Difluorophenyl)-11-methyl-1-oxo-2,3,4,5-tetrahydro-[1,4]diazepino[1,2-a]indole-9-carbonitrile] | 225 | 0.031 |
| Cc1cc(-c2ccc(F)c(F)c2)c2c(c1)cc1n2CCNC1=O [Example 60, 6-(3,4-Difluoro-phenyl)-8-methyl-3,4-dihydro-2H-pyrazino[1,2-a]indol-1-one] | 249.5 | 0.71 |
| Cc1c2n(c3c(-c4cccnc4)cc(C#N)cc13)CCCNC2=O [Example 298, 11-Methyl-1-oxo-7-pyridin-3-yl-2,3,4,5-tetrahydro-[1,4]diazepino[1,2-a]indole-9-carbonitrile] | 260 | 1 |
| Cc1c2n(c3c(-c4ccc(C(F)(F)F)cc4)cc(F)cc13)CCNC2=O [Example 82, 8-Fluoro-10-methyl-6-(4-trifluoromethyl-phenyl)-3,4-dihydro-2H-pyrazino[1,2-a]indol-1-one] | 269.5 | 0.036 |
| Cc1c2n(c3c(-c4ccc(Cl)c(Cl)c4)cc(C#N)cc13)CCCNC2=O [Example 296, 7-(3,4-Dichlorophenyl)-11-methyl-1-oxo-2,3,4,5-tetrahydro-[1,4]diazepino[1,2-a]indole-9-carbonitrile] | 254 | 0.2 |
| COc1ccc(-c2cc(F)cc3cc4n(c23)CCNC4=O)cc1 [Example 19, 8-Fluoro-6-(4-methoxy-phenyl)-3,4-dihydro-2H-pyrazino[1,2-a]indol-1-one] | 274.5 | 0.007 |
| N#Cc1cc(-c2ccc(F)nc2)c2c(c1)cc1n2CCNC1=O [Example 203, 6-(6-Fluoropyridin-3-yl)-1-oxo-3,4-dihydro-2H-pyrazino[1,2-a]indole-8-carbonitrile] | 268 | 0.36 |
| Cc1c2n(c3c(-c4cc(F)c(F)c(F)c4)cc(Cl)cc13)CCNC2=O [Example 136, 8-Chloro-10-methyl-6-(3,4,5-trifluoro-phenyl)-3,4-dihydro-2H-pyrazino[1,2-a]indol-1-one] | 253 | 0.021 |
| O=C1NCCCn2c1cc1cc(F)c(F)c(-c3ccc(F)c(F)c3)c12 [Example 42, 7-(3,4-Difluoro-phenyl)-8,9-difluoro-2,3,4,5-tetrahydro-[1,4]diazepino[1,2-a]indol-1-one] | 225 | 0.21 |
| O=C1NCCCn2c1cc1cc(Cl)cc(-c3ccc(F)cc3)c12 [Example 48, 9-Chloro-7-(4-fluoro-phenyl)-2,3,4,5-tetrahydro-[1,4]diazepino[1,2-a]indol-1-one] | 260 | 0.43 |
| Cc1c2n(c3c(-c4ccc(Cl)cc4)cc(C#N)cc13)CCCNC2=O [Example 199, 7-(4-Chlorophenyl)-11-methyl-1-oxo-2,3,4,5-tetrahydro-[1,4]diazepino[1,2-a]indole-9-carbonitrile] | 298 | 0.053 |
| Cc1ccc(-c2cc(C#N)cc3cc4n(c23)CCNC4=O)cc1F [Example 233, 6-(3-Fluoro-4-methylphenyl)-1-oxo-3,4-dihydro-2H-pyrazino[1,2-a]indole-8-carbonitrile] | 278.5 | 0.052 |
| Cc1c2n(c3c(-c4ccc(F)nc4)cc(Cl)cc13)CCNC2=O [Example 114, 8-Chloro-6-(6-fluoro-pyridin-3-yl)-10-methyl-3,4-dihydro-2H-pyrazino[1,2-a]indol-1-one] | 270 | 0.04 |
